The values that follow come from patent publication US7414068B2, “Benzopyran derivatives substituted with secondary amines including tetrazole, method for the preparation thereof and pharmaceutical compositions containing them” (Dongbu Hannong Chemical Co., Ltd., priority 2002, dated 2008).

The subject of assay [1] is A7r5 (Rat thoracic aorta smooth muscle cell line, ATCC). Kind of assay: Inhibitory effect on accumulation of reactive oxygen species induced by hydrogen peroxide (DCF fluorescence). It is filed as cell-based. The settings on record: hydrogen peroxide 50 μM. As for the experimental part:
To measure reactive oxygen species, H2DCFDA (2′,7′-dichlorodihydrofluorescein diacetate, Molecular Probes, Eugene, Oreg., USA) was used. If H2DCFDA, nonpolar material is transferred through cell membrane, it is changed to H2DCF (2′,7′-dichlorodihydrofluorescein), material impermeable to membrane by intracellular esterase. H2DCF is changed to high fluorescent DCF (2′,7′-dichlorofluorescein) by low fluorescent peroxidated oxygen or hydroxyl radical. H2DCFDA solution (10 mM) dissolved in DMSO was used before the experiment. A7r5 (Rat thoracic aorta smooth muscle cell line, ATCC), as smooth muscle cell was incubated in DMEM (Dulbecco's Modified Eagle's Medium) containing 10% of FBS (fetal bovine serum). Thereafter, the cell was incubated in 48 well plate for two days, then was incubated in serum-free DMEM for 24 hours to use for experiment. Krebs-linger buffer (Krebs-Ringer (K-R), 99.01 mM NaCl, 4.69 mM KCl, 1.87 mM CaCl2, 1.2 mM MgSO4, 1.03 mM K2HPO4, 25 mM NaHCO3, 20 mM Hepes, 11.1 mM D-glucose, pH 7.4) was used for washing and process of cell monolayers. After cell monolayers media was removed, each of test compounds (0.2 ml) was pre-treated to media, then incubated at 37° C. for 15 min. Final concentration was 50 μM, hydrogen peroxide was added. The media was allowed to stand for 30 min. The said solution from media was removed. The media was washed one time. H2DCFDA 20 μM was added to the media. The media was allowed to stand for 30 min. the media was washed two times. Thereafter, oxidation of H2DCFDA was measured by Fluorescence reader (FL600, Biotech Instruments, 485 nm excitation, 530 nm emission).

Assay [2] deals with Low density lipoprotein of human (human LDL). Kind of assay: Inhibitory effect against lipid peroxidation induced by copper (LDL oxidation, MDA). It is filed as biochemical. The settings on record: CuSO4 10 μM, 37° C. 18 hours. As to the method:
Low density lipoprotein of human (human LDL, sigma) was dissolved in water to be final concentration of 1 mg/ml. To remove EDTA (ethylenediamine tetraacetate), the aqueous solution was dialyzed in phosphate buffer at 4° C. for 18 hours. At this dialysis, phosphate buffer was changed three times. Phosphate buffer was added to LDL (100 μg LDL protein/ml) which EDTA was removed from the aqueous solution, additionally thereto CuSO4 10 μM as oxidant was added. […] Group to which CUSO4 was not added was used as blank group. Group to which CUSO4 and vehicle were added in place of test compounds was used as control group. The mixture was incubated at 37° C. for 18 hours. EDTA […] was added to the mixture to terminate the oxidation reaction.
As shown in example 4, Cu^2+ facilitates the oxidation reaction to produce malondialdehyde (MDA), lipid peroxidation product. The MDA quantification is achieved by reacting samples with 2-thiobarbituric acid (TBA) and measuring the absorbance at 530 nm. Also, 1,1,3,3-tetramethoxypropane purchased from sigma was used as standard materials. Inhibitory effect against lipid peroxidation of the test compounds was measured by MDA (nmol) to protein (mg). Decrease of MDA to that of control group was calculated.

The subject of another assay is new born rats. Kind of assay: Protective effect on ischemic-hypoxic brain injury (MRS). It counts as in vivo, rat. The settings on record: for Lip/Cr / Lip/NAA: MRS. From the text: By using the said report, the protective effect on brain damage induced by hypoxia […] was investigated. [Van der A. Toorn et al. Magnetic Resonance in Medicine, 1996, 36, 914-922]. It was reported that the lipid peak was increased in MRS by ischemic neuronal cell injury due to the destruction of cell membrane including blood-brain barrier. Also, it was reported that increase of lipid concentration was correlated to apoptosis. [A. Bizzi et al., Magnetic Resonance Imaging, 1996, 14, 581-592]. Therefore, it was reported that Lipid/NAA and Lipid/Cr obtained by comparing lipid with N-acetylaspartate (NAA) and creatine (Cr) as marker of neuronal cell was correlated to morphological changes and severity of apoptosis on hypoxic brain damage.
In new born rats (within 7 days, 10˜15 g), left carotid artery were intermitted for 3 hours to induce hypoxia. Test compounds were intraperitoneally injected before 1 hour of hypoxia. […] of which the carotid artery was intermitted was used as ischemic-hypoxic model, right eye of which the carotid artery was not intermitted was used as hypoxic model. Magnetic resonance spectrum was obtained from both models, after histological test, accomplished in one day from damage. From the said result, Lipid/NAA or Lipid/Cr was measured. Also, viability and morphological score by macroscopic observation of infarct volume was calculated.

[3] abbreviates: Hypoxic, 50 mg/kg intraperitoneally.

SMILES strings stand for the structures.

On to `COC(OC)[C@@]1(C)Oc2ccc(N)cc2[C@H](N(Cc2nnn(C)n2)c2ccc(Cl)cc2)[C@H]1O` [Example 11, (2S,3R,4S)-6-amino-4-[N-(4-chlorophenyl)-N-(2-methyl-2H-tetrazol-5-ylmethyl)amino]-3-hydroxy-2-methyl-2-dimethoxymethyl-3,4-dihydro-2H-1-benzopyran], for which the “Inhibitory(%) against reactive oxygen species accumulation” value in assay [1] (addition 3 μM) is recorded as 6%; in assay [1] (addition 10 μM) it was 82%; in assay [1] (addition 30 μM) it was 124%. Further, the “Inhibitory effect(%) against lipid peroxidation induced by copper” value in assay [2] (Addition 10^−5 M) was found to be 63.9%; in assay [2] (Addition 10^−6 M), 54.9%; in assay [2] (Addition 10^−7 M), 27.3%. Besides, the “Survival (%)” value in the assay on new born rats (50 mg/kg) came to 79%. The “Survival (animals surviving/total)” value in the assay with new born rats (50 mg/kg) is 19/24. This compound registered a Morphological score in the assay on new born rats (50 mg/kg, macroscopic observation of infarct volume) of 1.4. Also, the Lip/Cr in the assay on new born rats (setting [3]) is listed as 1.55; with new born rats (Ischemic-hypoxic, 50 mg/kg intraperitoneally), 5.16. For the same compound, the Lip/NAA in the assay on new born rats (setting [3]) amounted to 1.69; in the assay on new born rats (Ischemic-hypoxic, 50 mg/kg intraperitoneally 1 hour before hypoxia), 5.43.
